“And” between values parts separate entries of the source, which are not always exact repeats. Equal entries are not always repeated.
How the values were obtained:
RPCIWM-1 = experiment: CellTiter-Glo cell viability assay; format: cell-based; conditions: 72 hours, cell survival
Experimental: (§1) CellTiter-Glo® Luminescent cell viability assay (Promega) was used to assess cell survival following treatment with the compounds described. Cells were seeded into 384 well plates with the EL406 Combination Washer Dispenser (BioTek Instruments, Inc.), and the compounds were injected into the cells culture media with the JANUS Automated Workstation (PerkinElmer Inc.). Cells were treated with a series diluted inhibitors (20˜0.04 μM) for 72 hours at 37° C. Luminescent measurement is performed using the 2104 Envision® Multilabel Reader (PerkinElmer Inc.).

Ramos = experiment: CellTiter-Glo cell viability assay; format: cell-based; conditions: 72 hours, cell survival
Experimental: as §1

MWCL-1 = experiment: CellTiter-Glo cell viability assay; format: cell-based; conditions: 72 hours, cell survival
Experimental: as §1

OCI-Ly3 = experiment: CellTiter-Glo cell viability assay; format: cell-based; conditions: Homo sapiens, 72 hours, cell survival
Experimental: as §1

BCWM.1 = experiment: CellTiter-Glo cell viability assay; format: cell-based; conditions: 72 hours, cell survival
Experimental: as §1

JNK1, JNK2, JNK3 = experiment: KiNativ profiling, A375 cells; format: binding, Homo sapiens; conditions: 1 μM, labeling site Lys2
CDK11, CDK8 = experiment: KiNativ profiling, A375 cells; format: binding, Homo sapiens; conditions: 1 μM, labeling site Lys2
FYN, SRC, YES = experiment: KiNativ profiling, A375 cells; format: binding, Homo sapiens; conditions: 1 μM, labeling site Activation Loop
IKKe, TBK1 = experiment: KiNativ profiling, A375 cells; format: binding, Homo sapiens; conditions: 1 μM, labeling site Lys2
MST4, YSK1 = experiment: KiNativ profiling, A375 cells; format: binding, Homo sapiens; conditions: 1 μM, labeling site Lys2
MAP3K2, MAP3K3 = experiment: KiNativ profiling, A375 cells; format: binding, Homo sapiens; conditions: 1 μM, labeling site Lys2
[1] = tested on: CaMK2a, CaMK2b, CaMK2d, CaMK2g; experiment: KiNativ profiling, A375 cells; format: binding, Homo sapiens; conditions: 1 μM, labeling site Lys2
LYN = format: binding, Homo sapiens
NEK6, NEK7 = experiment: KiNativ profiling, A375 cells; format: binding, Homo sapiens; conditions: 1 μM, labeling site Lys2
MARK1, MARK2 = experiment: KiNativ profiling, A375 cells; format: binding, Homo sapiens; conditions: 1 μM, labeling site Lys1
ABL, ARG = experiment: KiNativ profiling, A375 cells; format: binding, Homo sapiens; conditions: 1 μM, labeling site Activation Loop
PITSLRE = experiment: KiNativ profiling, A375 cells; format: binding, Homo sapiens; conditions: 1 μM, labeling site Lys2
[2] = tested on: ZC1/HGK, ZC2/TNIK, ZC3/MINK; experiment: KiNativ profiling, A375 cells; format: binding, Homo sapiens; conditions: 1 μM, labeling site Lys2
PKD1, PKD2 = experiment: KiNativ profiling, A375 cells; format: binding, Homo sapiens; conditions: 1 μM, labeling site Lys2
ROCK1, ROCK2 = experiment: KiNativ profiling, A375 cells; format: binding, Homo sapiens; conditions: 1 μM, labeling site Lys2
AMPKa1, AMPKa2 = experiment: KiNativ profiling, A375 cells; format: binding, Homo sapiens; conditions: 1 μM, labeling site Lys1
MARK2, MARK3 = experiment: KiNativ profiling, A375 cells; format: binding, Homo sapiens; conditions: 1 μM, labeling site Lys2
TAO1, TAO3 = experiment: KiNativ profiling, A375 cells; format: binding, Homo sapiens; conditions: 1 μM, labeling site Lys2
MAP2K1, MAP2K2 = experiment: KiNativ profiling, A375 cells; format: binding, Homo sapiens; conditions: 1 μM, labeling site Lys2
p38d, p38g = experiment: KiNativ profiling, A375 cells; format: binding, Homo sapiens; conditions: 1 μM, labeling site Lys2
ZAK = format: binding, Homo sapiens
OCI-Ly19 = experiment: CellTiter-Glo cell viability assay; format: cell-based; conditions: 72 hours, cell survival
Experimental: as §1

## CCN1CCN(Cc2ccc(NC(=O)c3ccc(Cl)c(NC(=O)c4cncc(-c5cccs5)c4)c3)cc2C(F)(F)F)CC1 [I-2, N-(2-chloro-5-((4-((4-ethylpiperazin-1-yl)methyl)-3-(trifluoromethyl)phenyl)carbamoyl)phenyl)-5-(thiophen-2-yl)nicotinamide]
RPCIWM-1
  EC50: 110 nM
Ramos; Homo sapiens, Ramos
  EC50: 60 nM
MWCL-1
  EC50: 16 nM
OCI-Ly3
  EC50: 161 nM
BCWM.1; BCWM1
  EC50: 12 nM

## Cc1ccc(C(=O)Nc2cccc(C(C)(C)C#N)c2)cc1NC(=O)c1cncc(-c2cccs2)c1 [I-6, N-(5-((3-(2-cyanopropan-2-yl)phenyl)carbamoyl)-2-methylphenyl)-5-(thiophen-2-yl)nicotinamide]
JNK1, JNK2, JNK3
  KiNativ inhibition of JNK1, JNK2, JNK3: 11.7%
CDK11, CDK8
  KiNativ inhibition of CDK11, CDK8: 20.7%
FYN, SRC, YES
  KiNativ inhibition of FYN, SRC, YES: 55.7%
IKKe, TBK1
  KiNativ inhibition of IKKe, TBK1: 24.8%
MST4, YSK1
  KiNativ inhibition of MST4, YSK1: 22%
MAP3K2, MAP3K3
  KiNativ inhibition of MAP3K2, MAP3K3: -15.3%
[1]
  KiNativ inhibition of CaMK2a, CaMK2b, CaMK2d, CaMK2g: 0.7%
LYN
  KiNativ inhibition of LYN: 87.6%
NEK6, NEK7
  KiNativ inhibition of NEK6, NEK7: -3.7%
MARK1, MARK2
  KiNativ inhibition of MARK1, MARK2: -4.9%
ABL, ARG
  KiNativ inhibition of ABL, ARG: >90%
PITSLRE
  KiNativ inhibition of PITSLRE: 1.9%
[2]
  KiNativ inhibition of ZC1/HGK, ZC2/TNIK, ZC3/MINK: 27%
PKD1, PKD2
  KiNativ inhibition of PKD1, PKD2: -2.5%
ROCK1, ROCK2
  KiNativ inhibition of ROCK1, ROCK2: 12.7%
AMPKa1, AMPKa2
  KiNativ inhibition of AMPKa1, AMPKa2: 15.3%
MARK2, MARK3
  KiNativ inhibition of MARK2, MARK3: 17.2%
TAO1, TAO3
  KiNativ inhibition of TAO1, TAO3: 11.9%
MAP2K1, MAP2K2
  KiNativ inhibition of MAP2K1, MAP2K2: 4.1%
p38d, p38g
  KiNativ inhibition of p38d, p38g: 17.8%
ZAK
  KiNativ inhibition of ZAK: >95%

## CCN1CCN(Cc2ccc(NC(=O)c3ccc(C)c(NC(=O)c4cncc(-c5cnoc5)c4)c3)cc2C(F)(F)F)CC1 [I-8]
Ramos
  EC50: 329 nM
OCI-Ly19
  EC50: 56 nM

## CCN1CCN(Cc2ccc(NC(=O)c3ccc(C)c(NC(=O)c4cncc(-c5cnn(C)c5)c4)c3)cc2C(F)(F)F)CC1 [I-9]
Ramos
  EC50: 7470 nM
MWCL-1
  EC50: 294 nM and 281 nM
OCI-Ly19
  EC50: 2650 nM
BCWM.1
  EC50: 542 nM and 305 nM
